Results from patent publication US20090291945A1, “CYSTEINE PROTEASE INHIBITORS” (Teijin Pharma Limited, priority 2008, published 2009).

These molecules were tested against T1, cathepsin K (Homo sapiens, UniProt P43235) (assay: Cathepsin K inhibitory activity (fluorescent substrate Z-Leu-Arg-MCA)). Details: enzyme expressed in HEK293T; 15 min preincubation, 30 min reaction at room temperature, pH 5.5; read-out: Activity Intensity (cathepsin K inhibitory activity, pIC50 class) (converted).
T1 construct: the active enzyme was obtained as the enzyme fraction by using detergent containing lysis buffer; made in house; host or cells: HEK293T (GenHunter Corporation), transient expression; detergent lysate used as enzyme fraction
T1 sequence (P43235 115-329): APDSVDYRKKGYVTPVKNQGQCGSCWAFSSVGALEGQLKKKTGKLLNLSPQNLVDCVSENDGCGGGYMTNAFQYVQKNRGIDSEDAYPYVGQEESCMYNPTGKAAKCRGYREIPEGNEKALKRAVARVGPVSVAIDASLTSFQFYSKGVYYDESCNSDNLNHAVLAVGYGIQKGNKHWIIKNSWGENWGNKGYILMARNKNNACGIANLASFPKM
Assay type: biochemical
Method: Cathepsin K inhibitory activities of the compounds synthesized according to the methods of the above examples were measured.
Cathepsin K used for evaluation of inhibitory activity was transiently expressed in an animal cell HEK293T (made by GenHunter Corporation) and the active enzyme was obtained as the enzyme fraction by using detergent containing lysis buffer.
The enzyme solution A was prepared at 2.1 times final concentration by diluting the enzyme fraction with assay buffer (50 mM sodium acetate, 50 mM sodium chloride, 2 mM DTT, pH 5.5). The test compound solutions B were prepared at 50 times final target concentrations by dimethylsulfoxide (DMSO). As a substrate solution C, a solution of a fluorescent substrate, benzyloxycarbonyl-L-leucyl-L-arginyl-4-methyl-coumaryl-7-amide (Z-Leu-Arg-MCA (Peptide Institute Inc.), was prepared at 10 μM by an assay buffer.
To the enzyme solution A (38.4 μL) were added the test compound solutions B (1.6 μL) and mixed individually. The mixtures were incubated at room temperature for 15 minutes. To the incubated solutions were added the substrate solution C (40 μL) and the mixtures were reacted at room temperature for 30 minutes respectively. The fluorescence intensities of the enzyme reaction solutions were measured at excitation wavelength of 355 nm and measurement wavelength of 460 nm and the enzyme activities were calculated from these fluorescence intensities caused by 7-amino-4-methylcoumarine released. The enzyme activity with using DMSO instead of the test compound solution B was taken as 100% and the inhibitory rates at each concentration of the test compound were calculated. The […] response curve was fitted to the plots. The 50% inhibitory concentration against cathepsin K was calculated from this curve.
Note that the symbols (+, ++, and +++) in this table represent the inhibitory activity values as below. Here, pIC50 is the value representing a negative logarithm of IC50, (−log10(IC50)). IC50 is a 50% inhibitory concentration.
With `CC(C)C[C@H](N[C@@H](c1ccccc1)C(F)(F)F)C(=O)N[C@@H](CCOCc1ccccc1)CNc1ccc(N2CCOCC2)cc1` [Compound 87] the IC50 was no more than 3.16 nM. With `CC[C@@H](CNc1ccccc1N1CCOCC1)NC(=O)[C@H](CC(C)C)N[C@@H](c1ccccc1)C(F)(F)F` [Compound 88] the IC50 was 31.6 to 10000 nM. `CC[C@@H](CNc1ccc(OCC(=O)N(C)OC)cc1OC)NC(=O)[C@H](CC(C)C)N[C@@H](c1ccccc1)C(F)(F)F` [Compound 89] showed an IC50 of no more than 3.16 nM. Work on `CC[C@@H](CNc1ccc(OCC(F)(F)F)cc1)NC(=O)[C@H](CC(C)C)N[C@@H](c1ccccc1)C(F)(F)F` [Compound 90] yielded an IC50 of 31.6 to 10000 nM. With `CC(C)C[C@H](N[C@@H](c1ccccc1)C(F)(F)F)C(=O)N[C@@H](CCCC(=O)OC(C)(C)C)CNc1ccc(N2CCOCC2)cc1` [Compound 91] the IC50 was no more than 3.16 nM. Work on `CC(C)C[C@H](N[C@@H](c1ccccc1)C(F)(F)F)C(=O)N[C@@H](CCC#N)CNc1ccc(N2CCOCC2)cc1` [Compound 92] yielded an IC50 of no more than 3.16 nM. In the case of `CC(C)(F)C[C@H](N[C@@H](c1ccccc1)C(F)(F)F)C(=O)N[C@@H](CCC#N)CNc1ccc(N2CCOCC2)cc1` [Compound 94], the IC50 is reported as no more than 3.16 nM. In the case of `CC[C@@H](CNc1ccc(OC)cc1OC)NC(=O)[C@H](CC(C)C)N[C@@H](c1ccc(OC)cc1)C(F)(F)F` [Compound 95], the IC50 is reported as no more than 3.16 nM. In the case of `CC[C@@H](CNc1ccc(OCc2ccccc2)cc1)NC(=O)[C@H](CC(C)C)N[C@@H](c1ccccc1)C(F)(F)F` [Compound 96], the IC50 is reported as 3.16 to 31.6 nM. With `CC[C@@H](CNc1ccc(OCc2ccccc2)cc1)NC(=O)[C@H](CC(C)C)N[C@@H](c1ccc(OC)cc1)C(F)(F)F` [Compound 97] the IC50 was 3.16 to 31.6 nM. With `CC[C@@H](CNc1ccc2c(c1)OCO2)NC(=O)[C@H](CC(C)C)N[C@@H](c1ccccc1)C(F)(F)F` [Compound 99] the IC50 was 31.6 to 10000 nM. `CC[C@@H](CNc1ccc2c(c1)OCO2)NC(=O)[C@H](CC(C)C)N[C@@H](c1ccc(OC)cc1)C(F)(F)F` [Compound 100] gave an IC50 of 31.6 to 10000 nM. `CC(C)C[C@H](N[C@@H](c1ccccc1)C(F)(F)F)C(=O)N[C@@H](CCCCNC(=O)OCc1ccccc1)CNc1ccc(N2CCOCC2)cc1` [Compound 102] gave an IC50 of no more than 3.16 nM. In the case of `CC(C)C[C@H](N[C@@H](c1ccccc1)C(F)(F)F)C(=O)N[C@@H](CCCNC(=O)OCc1ccccc1)CNc1ccc(N2CCOCC2)cc1` [Compound 103], the IC50 is reported as no more than 3.16 nM. For `CC(C)C[C@H](N[C@@H](c1ccccc1)C(F)(F)F)C(=O)N[C@@H](CNC(=O)OCc1ccccc1)CNc1ccc(N2CCOCC2)cc1` [Compound 104], the IC50 was no more than 3.16 nM. `CC(C)C[C@H](N[C@@H](c1ccccc1)C(F)(F)F)C(=O)N[C@@H](CCNC(=O)OCc1ccccc1)CNc1ccc(N2CCOCC2)cc1` [Compound 105] gave an IC50 of no more than 3.16 nM. `CC(C)C[C@H](N[C@@H](c1ccccc1)C(F)(F)F)C(=O)N[C@H](CNc1ccc(N2CCOCC2)cc1)CN(C)C` [Compound 106] was tested, and the IC50 was no more than 3.16 nM. `CC[C@@H](CNc1ccc(N2CCC(O)CC2)cc1)NC(=O)[C@H](CC(C)C)N[C@@H](c1ccccc1)C(F)(F)F` [Compound 108] showed an IC50 of no more than 3.16 nM. `CCOC(=O)C1(C(C)C)CCN(c2ccc(NC[C@H](CC)NC(=O)[C@H](CC(C)C)N[C@@H](c3ccccc3)C(F)(F)F)cc2)CC1` [Compound 109] was tested, and the IC50 was no more than 3.16 nM. In the case of `COc1ccc(NC[C@H](C)NC(=O)C2(NC(c3ccccc3)C(F)(F)F)CCCCC2)c(OC)c1` (stereo partly drawn) [Compound 110], the IC50 is reported as 31.6 to 10000 nM. In the case of `CCOC(=O)C(F)(F)Oc1ccc(NC[C@H](CC)NC(=O)[C@H](CC(C)(C)F)N[C@@H](c2ccccc2)C(F)(F)F)c(OC)c1` [Compound 111], the IC50 is reported as 31.6 to 10000 nM. `CC[C@@H](CNc1ccc(-n2ccnc2)cc1)NC(=O)[C@H](CC(C)C)N[C@@H](c1ccccc1)C(F)(F)F` [Compound 112] was tested, and the IC50 was 31.6 to 10000 nM. Molecule `CC[C@@H](CNc1ccc(-n2ccnc2)cc1)NC(=O)[C@H](CC(C)C)N[C@@H](c1ccc(OC)nc1)C(F)(F)F` [Compound 113] has an IC50 of 31.6 to 10000 nM. With `CCOC(=O)c1ccnn1-c1ccc(NC[C@H](CC)NC(=O)[C@H](CC(C)C)N[C@@H](c2ccccc2)C(F)(F)F)cc1` [Compound 114] the IC50 was 31.6 to 10000 nM.
